Calls of active or inactive are those of the source. The calls are words filed in the database; no cut-off is given here.
Assays:
cells [1] = assay type: functional, cell-based; conditions: Homo sapiens, HCC827, 72 h
A549 = test: cells; assay type: ADME, cell-based; conditions: Homo sapiens, A549, 72 h
Description: Cytotoxicity against human A549 cells harboring wild type EGFR and k-RAS mutation assessed as growth inhibition after 72 hrs by MTT assay

cells [2] = assay type: ADME, cell-based; conditions: Homo sapiens, 16HBE14o-, 72 h
Description: Cytotoxicity against human 16HBE14o- cells harboring wild type EGFR assessed as growth inhibition after 72 hrs by MTT assay

[3] = molecular target: Epidermal growth factor receptor (Homo sapiens, UniProt P00533, L858R/T790M); assay type: protein assay
Description: Inhibition of EGFR L858R/T790M double mutant (unknown origin) after 1.5 hrs by FRET-based Z'Lyte assay

cells [4] = assay type: ADME, cell-based; conditions: Homo sapiens, BEAS-2B, 72 h
Description: Cytotoxicity against human BEAS2B cells harboring wild type EGFR assessed as growth inhibition after 72 hrs by MTT assay

[5] = molecular target: Epidermal growth factor receptor (Homo sapiens, UniProt P00533, L858R); assay type: protein assay
Description: Inhibition of EGFR L858R mutant (unknown origin) after 1.5 hrs by FRET-based Z'Lyte assay

A-431 = test: cells; assay type: ADME, cell-based; conditions: Homo sapiens, A-431, 72 h
Description: Cytotoxicity against human A431 cells overexpressing wild type EGFR assessed as growth inhibition after 72 hrs by MTT assay

NCI-H1975 [6] = test: Cytotoxicity against gefitinib-resistant human NCI-H1975 cells harboring EGFR L858R/[…] double mutant assessed as growth inhibition after 72 hrs by MTT assay; assay type: functional, cell-based; conditions: NCI-H1975, 72 h
[7] = molecular target: Epidermal growth factor receptor (Homo sapiens, UniProt P00533)
Description: Inhibition of wild type EGFR (unknown origin) after 1.5 hrs by FRET-based Z'Lyte assay

NCI-H1975 [8] = test: Induction of NO production in human NCI-H1975 cells harboring EGFR L858R/[…] double mutant assessed as increase in nitrite level at 100 uM after 150 mins by Griess assay; assay type: functional, cell-based
[9] = Selectivity ratio of IC50 for human BEAS2B cells harboring wild type EGFR to IC50 for gefitinib-resistant human NCI-H1975 cells harboring EGFR L858R/[…] double mutant; assay type: ADME, cell-based; conditions: read-out: Ratio IC50
[10] = Selectivity ratio of IC50 for human A549 cells harboring wild type EGFR and k-RAS mutation to IC50 for gefitinib-sensitive human HCC827 cells harboring EGFR […] deletion mutant; assay type: ADME, cell-based
[11] = Selectivity ratio of IC50 for human 16HBE14o- cells harboring wild type EGFR to IC50 for gefitinib-resistant human NCI-H1975 cells harboring EGFR L858R/[…] double mutant; assay type: ADME, cell-based; conditions: read-out: Ratio IC50
[12] = Selectivity ratio of IC50 for human BEAS2B cells harboring wild type EGFR to IC50 for gefitinib-sensitive human HCC827 cells harboring EGFR […] deletion mutant; assay type: ADME, cell-based; conditions: read-out: Ratio IC50
[13] = Selectivity ratio of IC50 for human A431 cells overexpressing wild type EGFR to IC50 for gefitinib-sensitive human HCC827 cells harboring EGFR […] deletion mutant; assay type: ADME, cell-based
[14] = Selectivity ratio of IC50 for human A431 cells overexpressing wild type EGFR to IC50 for gefitinib-resistant human NCI-H1975 cells harboring EGFR L858R/[…] double mutant; assay type: ADME, cell-based
[15] = Selectivity ratio of IC50 for human 16HBE14o- cells harboring wild type EGFR to IC50 for gefitinib-sensitive human HCC827 cells harboring EGFR […] deletion mutant; assay type: ADME, cell-based; conditions: read-out: Ratio IC50
[16] = Selectivity ratio of IC50 for human A549 cells harboring wild type EGFR and k-RAS mutation to IC50 for gefitinib-resistant human NCI-H1975 cells harboring EGFR L858R/[…] double mutant; assay type: ADME, cell-based
[17] = Induction of apoptosis in EGFR-independent human H460 cells at 1 to 5 uM after 24 hrs by annexin-V/7-AAD staining-based FACS flow cytometric analysis; assay type: cell-based; conditions: nci-h460, 24 h
HCC827 = test: Induction of apoptosis in gefitinib-sensitive human HCC827 cells harboring EGFR […] deletion mutant after 24 hrs by annexin-V/7-AAD staining-based FACS flow cytometric analysis; assay type: functional, cell-based
NCI-H1975 [18] = test: Induction of apoptosis in gefitinib-resistant human NCI-H1975 cells harboring EGFR L858R/[…] double mutant after 24 hrs by annexin-V/7-AAD staining-based FACS flow cytometric analysis; assay type: functional, cell-based
[19] = system: Epidermal growth factor receptor (Homo sapiens), P00533 [L858R,T790M]; conditions: NCI-H1975, 0.01 to 1 uM
NCI-H1975 [20] = test: Antitumor activity against gefitinib-resistant human NCI-H1975 cells harboring EGFR L858R/[…] double mutant xenografted in athymic BALB/c nude mouse assessed as tumor growth inhibition at 8 mg/kg, ip qd administered for 14 days measured every other day during compound administration relative to vehicle-treated control; assay type: functional; conditions: 336 h, route intraperitoneal, read-out: TGI
[21] = system: Epidermal growth factor receptor (Homo sapiens), P00533 [L858R,T790M]; conditions: NCI-H1975, 0.01 to 1 uM; remark: listed apart in the source
[22] = system: Epidermal growth factor receptor (Homo sapiens), P00533 [L858R,T790M]; conditions: NCI-H1975, 0.01 to 1 uM; remark: listed apart in the source
NCI-H1975 [23] = test: Inhibition of NFkappaB phosphorylation in gefitinib-resistant human NCI-H1975 cells harboring EGFR L858R/[…] double mutant at 0.01 to 1 uM after 24 hrs by Western blot analysis; assay type: cell-based
[24] = Induction of NO production in human 16HBE14o- cells harboring wild type EGFR assessed as increase in nitrite level at 100 uM after 150 mins by Griess assay; assay type: cell-based; conditions: 2.5 h

Sequence of Epidermal growth factor receptor (Homo sapiens, UniProt P00533, L858R/T790M) (P00533 25-1210 T790M/L858R limits assumed): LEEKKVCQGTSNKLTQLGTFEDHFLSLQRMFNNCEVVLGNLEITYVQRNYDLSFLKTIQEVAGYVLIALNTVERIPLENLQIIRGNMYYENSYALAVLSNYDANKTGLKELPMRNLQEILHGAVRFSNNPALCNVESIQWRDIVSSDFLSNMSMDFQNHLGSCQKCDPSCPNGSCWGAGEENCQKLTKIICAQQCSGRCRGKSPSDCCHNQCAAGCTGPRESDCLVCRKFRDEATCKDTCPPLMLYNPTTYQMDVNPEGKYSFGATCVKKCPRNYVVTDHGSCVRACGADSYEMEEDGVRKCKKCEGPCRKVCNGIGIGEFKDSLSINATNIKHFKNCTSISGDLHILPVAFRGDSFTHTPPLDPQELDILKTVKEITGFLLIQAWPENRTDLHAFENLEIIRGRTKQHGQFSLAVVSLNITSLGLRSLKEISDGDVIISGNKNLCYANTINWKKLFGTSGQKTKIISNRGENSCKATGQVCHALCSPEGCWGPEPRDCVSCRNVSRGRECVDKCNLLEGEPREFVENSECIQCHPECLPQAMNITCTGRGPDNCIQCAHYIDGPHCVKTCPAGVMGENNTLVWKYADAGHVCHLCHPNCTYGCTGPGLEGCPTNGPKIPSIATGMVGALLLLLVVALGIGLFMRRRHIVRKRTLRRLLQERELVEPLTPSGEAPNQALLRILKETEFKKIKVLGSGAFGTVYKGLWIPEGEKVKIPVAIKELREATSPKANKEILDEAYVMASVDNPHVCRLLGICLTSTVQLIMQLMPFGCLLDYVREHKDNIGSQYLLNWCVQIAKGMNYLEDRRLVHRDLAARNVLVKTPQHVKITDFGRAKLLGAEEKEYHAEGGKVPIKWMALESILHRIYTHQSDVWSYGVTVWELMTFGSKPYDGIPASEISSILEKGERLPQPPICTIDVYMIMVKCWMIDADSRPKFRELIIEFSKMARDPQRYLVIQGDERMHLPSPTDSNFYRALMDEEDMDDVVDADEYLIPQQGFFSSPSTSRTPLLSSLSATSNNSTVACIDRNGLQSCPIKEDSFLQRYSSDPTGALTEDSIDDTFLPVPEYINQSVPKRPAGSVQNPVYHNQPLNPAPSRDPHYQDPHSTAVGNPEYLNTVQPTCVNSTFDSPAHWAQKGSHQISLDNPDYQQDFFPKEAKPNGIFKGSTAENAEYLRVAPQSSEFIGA
Sequence of Epidermal growth factor receptor (Homo sapiens, UniProt P00533, L858R) (P00533 25-1210 L858R limits assumed): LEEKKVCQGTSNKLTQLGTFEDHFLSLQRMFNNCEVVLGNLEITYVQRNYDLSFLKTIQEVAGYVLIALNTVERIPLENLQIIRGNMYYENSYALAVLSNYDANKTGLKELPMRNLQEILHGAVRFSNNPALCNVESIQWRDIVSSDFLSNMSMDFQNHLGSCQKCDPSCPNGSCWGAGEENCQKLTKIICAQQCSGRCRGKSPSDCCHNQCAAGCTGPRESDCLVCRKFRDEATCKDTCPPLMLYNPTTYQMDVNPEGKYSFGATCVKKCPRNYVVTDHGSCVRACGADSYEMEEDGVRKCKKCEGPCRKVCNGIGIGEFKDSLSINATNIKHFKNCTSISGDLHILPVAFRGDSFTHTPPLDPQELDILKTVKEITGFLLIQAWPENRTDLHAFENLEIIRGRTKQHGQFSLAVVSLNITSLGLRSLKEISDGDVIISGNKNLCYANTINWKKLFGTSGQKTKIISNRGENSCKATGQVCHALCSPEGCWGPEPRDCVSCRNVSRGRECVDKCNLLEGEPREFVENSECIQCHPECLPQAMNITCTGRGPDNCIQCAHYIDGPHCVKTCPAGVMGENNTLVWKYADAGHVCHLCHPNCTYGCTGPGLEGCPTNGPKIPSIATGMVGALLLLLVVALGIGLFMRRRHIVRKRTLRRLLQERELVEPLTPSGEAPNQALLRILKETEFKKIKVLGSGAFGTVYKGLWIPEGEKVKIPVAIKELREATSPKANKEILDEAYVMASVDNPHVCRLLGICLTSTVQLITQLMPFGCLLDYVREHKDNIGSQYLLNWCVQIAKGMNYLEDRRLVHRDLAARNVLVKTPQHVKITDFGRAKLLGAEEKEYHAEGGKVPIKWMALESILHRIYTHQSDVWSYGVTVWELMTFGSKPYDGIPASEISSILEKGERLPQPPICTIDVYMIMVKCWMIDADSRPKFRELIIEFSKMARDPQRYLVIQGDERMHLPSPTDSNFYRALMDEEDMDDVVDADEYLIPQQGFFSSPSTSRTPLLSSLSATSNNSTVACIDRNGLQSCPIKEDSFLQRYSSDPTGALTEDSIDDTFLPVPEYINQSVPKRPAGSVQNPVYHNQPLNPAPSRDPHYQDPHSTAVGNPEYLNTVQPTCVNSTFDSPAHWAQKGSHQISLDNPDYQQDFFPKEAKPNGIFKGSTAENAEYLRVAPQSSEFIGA
Sequence of Epidermal growth factor receptor (Homo sapiens), P00533 [L858R,T790M] (P00533 whole entry T790M/L858R, looked up): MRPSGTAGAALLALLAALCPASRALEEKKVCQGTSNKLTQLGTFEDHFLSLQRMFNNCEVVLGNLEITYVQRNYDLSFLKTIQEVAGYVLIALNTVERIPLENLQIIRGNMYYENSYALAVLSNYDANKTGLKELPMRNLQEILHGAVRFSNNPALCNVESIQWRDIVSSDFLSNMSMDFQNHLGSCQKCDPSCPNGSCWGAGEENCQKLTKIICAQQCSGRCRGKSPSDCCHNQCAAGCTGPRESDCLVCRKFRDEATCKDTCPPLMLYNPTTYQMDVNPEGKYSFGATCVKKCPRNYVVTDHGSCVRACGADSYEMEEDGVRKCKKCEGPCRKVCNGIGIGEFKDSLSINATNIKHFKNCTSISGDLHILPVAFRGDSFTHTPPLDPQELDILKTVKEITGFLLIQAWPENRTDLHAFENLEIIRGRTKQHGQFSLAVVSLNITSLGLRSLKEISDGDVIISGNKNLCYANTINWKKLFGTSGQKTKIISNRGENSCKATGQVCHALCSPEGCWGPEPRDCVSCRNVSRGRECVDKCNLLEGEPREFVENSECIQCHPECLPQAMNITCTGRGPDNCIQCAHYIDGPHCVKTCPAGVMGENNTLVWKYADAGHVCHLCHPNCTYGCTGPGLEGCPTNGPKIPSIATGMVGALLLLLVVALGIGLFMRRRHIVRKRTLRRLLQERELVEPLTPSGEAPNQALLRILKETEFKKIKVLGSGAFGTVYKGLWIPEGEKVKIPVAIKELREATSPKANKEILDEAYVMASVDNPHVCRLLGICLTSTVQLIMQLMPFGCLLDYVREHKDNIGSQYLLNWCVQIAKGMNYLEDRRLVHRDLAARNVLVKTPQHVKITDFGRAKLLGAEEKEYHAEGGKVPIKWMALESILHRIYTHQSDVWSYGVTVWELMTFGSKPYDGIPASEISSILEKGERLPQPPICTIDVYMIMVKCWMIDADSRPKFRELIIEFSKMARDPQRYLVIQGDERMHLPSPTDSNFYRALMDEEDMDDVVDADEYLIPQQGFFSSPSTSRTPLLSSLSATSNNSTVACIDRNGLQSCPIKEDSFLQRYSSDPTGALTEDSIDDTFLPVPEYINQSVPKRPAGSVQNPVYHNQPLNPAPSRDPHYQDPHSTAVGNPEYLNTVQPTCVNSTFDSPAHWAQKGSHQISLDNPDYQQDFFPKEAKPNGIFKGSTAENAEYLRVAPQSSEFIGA
Sequence of Epidermal growth factor receptor (Homo sapiens, UniProt P00533) (P00533 whole entry): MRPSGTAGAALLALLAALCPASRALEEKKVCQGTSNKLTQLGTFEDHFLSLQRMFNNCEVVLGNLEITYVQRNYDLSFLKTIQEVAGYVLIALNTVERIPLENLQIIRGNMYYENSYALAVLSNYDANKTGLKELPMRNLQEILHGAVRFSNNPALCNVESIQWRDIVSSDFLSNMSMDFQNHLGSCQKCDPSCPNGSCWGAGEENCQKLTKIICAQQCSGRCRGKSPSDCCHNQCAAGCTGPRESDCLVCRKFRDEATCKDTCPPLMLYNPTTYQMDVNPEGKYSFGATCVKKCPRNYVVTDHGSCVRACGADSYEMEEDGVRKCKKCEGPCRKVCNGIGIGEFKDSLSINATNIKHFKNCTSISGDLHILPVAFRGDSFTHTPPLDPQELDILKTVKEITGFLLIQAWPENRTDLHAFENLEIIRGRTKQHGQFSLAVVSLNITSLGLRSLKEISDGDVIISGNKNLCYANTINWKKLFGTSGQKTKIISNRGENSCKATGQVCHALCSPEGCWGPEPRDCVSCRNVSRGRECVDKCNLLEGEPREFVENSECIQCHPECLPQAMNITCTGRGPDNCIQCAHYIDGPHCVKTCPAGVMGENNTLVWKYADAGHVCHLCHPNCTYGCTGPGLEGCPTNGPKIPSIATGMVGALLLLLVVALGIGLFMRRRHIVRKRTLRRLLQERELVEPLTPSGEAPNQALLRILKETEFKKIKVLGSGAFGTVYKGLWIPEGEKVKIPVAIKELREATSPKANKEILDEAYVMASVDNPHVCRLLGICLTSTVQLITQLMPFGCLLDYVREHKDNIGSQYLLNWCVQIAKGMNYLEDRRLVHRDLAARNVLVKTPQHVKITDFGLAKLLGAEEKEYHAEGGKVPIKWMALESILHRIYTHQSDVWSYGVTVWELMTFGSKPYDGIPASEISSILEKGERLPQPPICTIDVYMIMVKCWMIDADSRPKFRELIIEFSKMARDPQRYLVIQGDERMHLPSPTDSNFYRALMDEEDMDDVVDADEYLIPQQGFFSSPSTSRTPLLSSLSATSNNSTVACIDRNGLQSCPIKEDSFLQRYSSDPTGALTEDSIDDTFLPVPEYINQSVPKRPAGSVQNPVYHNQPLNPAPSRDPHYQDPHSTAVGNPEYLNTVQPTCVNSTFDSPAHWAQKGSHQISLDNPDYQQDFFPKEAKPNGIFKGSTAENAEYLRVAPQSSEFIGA

IC50 (cells [1]) | IC50 (A549) | IC50 (cells [2]) | IC50 [3] | IC50 (cells [4]) | IC50 [5] | IC50 (A-431) | IC50 [7] | Compound | IC50 (NCI-H1975 [6]) | Activity (NCI-H1975 [8]) | other results
33 nM | 4250 nM | 1800 nM | 13 nM | 2200 nM | 66 nM | 701 nM | 42 nM | C=CC(=O)Nc1cccc(Oc2nc(Nc3ccc(N4CCN(CC(=O)N5CCC(Oc6no[n+]([O-])c6S(=O)(=O)c6ccccc6)CC5)CC4)cc3OC)ncc2Cl)c1 | 855 nM |  | 
21 nM | 2480 nM | 2280 nM | 13 nM | 2440 nM | 68 nM | 357 nM | 59 nM | C=CC(=O)Nc1cccc(Oc2nc(Nc3ccc(N4CCN(CC(=O)NCCCOc5no[n+]([O-])c5S(=O)(=O)c5ccccc5)CC4)cc3OC)ncc2Cl)c1 | 1030 nM |  | 
7 nM | 2560 nM | 2040 nM | 17 nM | 1350 nM | 83 nM | 1230 nM | 59 nM | C=CC(=O)Nc1cccc(Oc2nc(Nc3ccc(N4CCN(CC(=O)OCCOc5no[n+]([O-])c5S(=O)(=O)c5ccccc5)CC4)cc3OC)ncc2Cl)c1 | 63 nM |  | 
4290 nM | 23600 nM | 3400 nM |  | 1240 nM |  | 3380 nM |  | O=S(=O)(c1ccccc1)c1c(OCCCCCCO)no[n+]1[O-] | 5930 nM | Active | 
9 nM | 2260 nM | 1550 nM | 14 nM | 1530 nM | 63 nM | 736 nM | 51 nM | C=CC(=O)Nc1cccc(Oc2nc(Nc3ccc(N4CCN(CC(=O)NCCOc5no[n+]([O-])c5S(=O)(=O)c5ccccc5)CC4)cc3OC)ncc2Cl)c1 | 2020 nM | Active | 
10 nM | 5530 nM | 2620 nM | 16 nM | 959 nM | 64 nM | 3500 nM | 52 nM | C=CC(=O)Nc1cccc(Oc2nc(Nc3ccc(N4CCN(CC(=O)OCC#CCOc5no[n+]([O-])c5S(=O)(=O)c5ccccc5)CC4)cc3OC)ncc2Cl)c1 | 43 nM | Active | 
6 nM | 17200 nM | 4150 nM | 38 nM | 2560 nM | 189 nM | 4070 nM | 174 nM | C=CC(=O)Nc1cccc(Oc2nc(Nc3ccc(N4CCN(CC(=O)OCCCCOc5no[n+]([O-])c5S(=O)(=O)c5ccccc5)CC4)cc3OC)ncc2Cl)c1 | 69 nM |  | selectivity ratio [9]: 40; Ratio IC50 [10]: 60; selectivity ratio [11]: 40; selectivity ratio [12]: 40; Ratio IC50 [13]: 60; Ratio IC50 [14]: 60; selectivity ratio [15]: 40; Ratio IC50 [16]: 60
41 nM | 4450 nM | 3160 nM | 30 nM | 2940 nM | 113 nM | 3020 nM | 101 nM | C=CC(=O)Nc1cccc(Oc2nc(Nc3ccc(N4CCN(CC(=O)OCCOCCOc5no[n+]([O-])c5S(=O)(=O)c5ccccc5)CC4)cc3OC)ncc2Cl)c1 | 471 nM | Active | 
100 nM | 1450 nM | 707 nM |  | > 50000 nM |  | > 10000 nM |  | C=CC(=O)Nc1cccc(Oc2nc(Nc3ccc(N4CCN(CC(=O)OCC)CC4)cc3OC)ncc2Cl)c1 | 1510 nM |  | 
291 nM | 2120 nM | 1480 nM | 6 nM | 1890 nM | 40 nM | 609 nM | 39 nM | C=CC(=O)Nc1cccc(Oc2nc(Nc3ccc(N4CCN(CC(=O)N5CCN(CCOc6no[n+]([O-])c6S(=O)(=O)c6ccccc6)CC5)CC4)cc3OC)ncc2Cl)c1 | 311 nM | Active | 
22 nM | 2930 nM | 2580 nM | 23 nM | 2980 nM | 98 nM | 1060 nM | 99 nM | C=CC(=O)Nc1cccc(Oc2nc(Nc3ccc(N4CCN(CC(=O)OCCCOc5no[n+]([O-])c5S(=O)(=O)c5ccccc5)CC4)cc3OC)ncc2Cl)c1 | 396 nM |  | 
8 nM | 2100 nM |  |  | 1810 nM |  |  |  | C=CC(=O)Nc1cccc(Oc2nc(Nc3ccc(N4CCN(C)CC4)cc3OC)ncc2Cl)c1 | 46 nM | inactive | Activity [17]: Non-toxic; Activity (HCC827): Dose-dependent effect; Activity (NCI-H1975 [18]): Dose-dependent effect; inhibition [19]: Active; inhibition in vivo at 8 mg/kg (NCI-H1975 [20]): 69%; inhibition [21]: Active; inhibition [22]: Active; inhibition (NCI-H1975 [23]): inactive; Activity [24]: Non-toxic
38 nM | 1790 nM | 1850 nM | 20 nM | 988 nM | 99 nM | 660 nM | 73 nM | C=CC(=O)Nc1cccc(Oc2nc(Nc3ccc(N4CCN(CC(=O)NCC(C)Oc5no[n+]([O-])c5S(=O)(=O)c5ccccc5)CC4)cc3OC)ncc2Cl)c1 (stereo not given) | 245 nM | Active | 
